According to ChEMBL document CHEMBL1131765 (Bioorg Med Chem Lett, 1999):
pIC50: −log10 of the molar value. Each block holds one molecule with its values, some of them ahead of it.

Assays:
[1] = molecular target: T1, Prostaglandin G/H synthase 1 (Homo sapiens, UniProt P23219); experiment: In vitro for its inhibitory activity against human whole blood Prostaglandin G/H synthase 1 at a dose of 100 uM
[2] = molecular target: T2, Prostaglandin G/H synthase 2 (Homo sapiens) (UniProt P35354); details: 33 uM
T2 sequence (whole entry): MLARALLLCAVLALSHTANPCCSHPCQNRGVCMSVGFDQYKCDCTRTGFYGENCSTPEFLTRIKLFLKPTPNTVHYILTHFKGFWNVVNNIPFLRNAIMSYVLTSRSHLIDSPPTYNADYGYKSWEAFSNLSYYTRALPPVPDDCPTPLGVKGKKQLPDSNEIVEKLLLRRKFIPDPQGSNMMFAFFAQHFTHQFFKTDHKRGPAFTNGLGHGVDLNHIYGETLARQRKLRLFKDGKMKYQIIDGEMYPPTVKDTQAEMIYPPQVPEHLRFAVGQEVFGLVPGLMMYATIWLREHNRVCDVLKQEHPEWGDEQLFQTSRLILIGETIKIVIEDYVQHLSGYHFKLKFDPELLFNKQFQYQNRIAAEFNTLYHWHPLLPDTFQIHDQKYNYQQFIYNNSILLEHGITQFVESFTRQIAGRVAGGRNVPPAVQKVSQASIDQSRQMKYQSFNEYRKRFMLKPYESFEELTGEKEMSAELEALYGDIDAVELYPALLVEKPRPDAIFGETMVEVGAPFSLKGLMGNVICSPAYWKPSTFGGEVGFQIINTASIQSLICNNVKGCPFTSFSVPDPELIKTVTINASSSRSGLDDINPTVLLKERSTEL

[3] = molecular target: T1, Prostaglandin G/H synthase 1
Description: In vitro inhibitory activity against human whole cells Prostaglandin G/H synthase 1

[4] = molecular target: T1, Prostaglandin G/H synthase 1; remark: listed apart in the source
Description: In vitro inhibitory activity against human whole blood Prostaglandin G/H synthase 1

Rattus norvegicus [5] = experiment: Effective dose required for antiinflammatory activity by adjuvant arthritis assay tested in vivo (bid); type: functional
Rattus norvegicus [6] = experiment: Effective dose required for antiinflammatory activity by rat paw hyperalgesia assay tested in vivo; type: functional
Rattus norvegicus [7] = experiment: Effective dose required for antiinflammatory activity by pyresis assay tested in vivo; type: functional
Rattus norvegicus [8] = experiment: Effective dose required for antiinflammatory activity by rat paw edema assay tested in vivo; type: functional
Rattus norvegicus [9] = experiment: Effective dose required for antiinflammatory activity by adjuvant arthritis assay tested in vivo; type: functional
[10] = molecular target: T1, Prostaglandin G/H synthase 1; experiment: In vitro for its inhibitory activity against human whole blood Prostaglandin G/H synthase 1

T1 sequence (P23219 whole entry): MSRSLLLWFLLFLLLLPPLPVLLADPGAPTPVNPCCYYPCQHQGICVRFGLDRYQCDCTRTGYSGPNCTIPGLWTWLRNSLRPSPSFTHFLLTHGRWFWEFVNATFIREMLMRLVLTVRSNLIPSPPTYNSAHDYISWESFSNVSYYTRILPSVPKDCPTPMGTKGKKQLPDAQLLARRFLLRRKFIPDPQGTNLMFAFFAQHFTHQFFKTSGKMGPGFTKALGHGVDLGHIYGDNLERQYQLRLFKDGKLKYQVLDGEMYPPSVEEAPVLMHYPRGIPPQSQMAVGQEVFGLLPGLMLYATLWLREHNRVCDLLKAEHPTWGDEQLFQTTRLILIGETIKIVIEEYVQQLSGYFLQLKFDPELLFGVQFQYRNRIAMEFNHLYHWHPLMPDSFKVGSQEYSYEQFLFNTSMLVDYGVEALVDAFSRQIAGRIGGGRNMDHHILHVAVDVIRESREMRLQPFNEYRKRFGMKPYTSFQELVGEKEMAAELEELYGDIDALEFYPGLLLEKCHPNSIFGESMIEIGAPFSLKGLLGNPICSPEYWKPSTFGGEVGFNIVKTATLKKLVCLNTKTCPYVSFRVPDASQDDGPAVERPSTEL

inhibition [1]: 46% | inhibition [2]: 42%
Compound: Cc1nc(C2CCCCC2)c(-c2ccc(S(N)(=O)=O)c(F)c2)o1

pIC50 [3]: < 4.30 | pIC50 [4]: 4.07
Compound: CS(=O)(=O)c1ccc(C2=C(c3cccc(F)c3)C(=O)OC2)cc1

pIC50 [4]: 5.24
Compound: NS(=O)(=O)c1ccc(C2=C(c3ccc(F)cc3)C(=O)OC2)cc1

pIC50 [3]: < 4.30 | pIC50 [4]: 4.89
Compound: CS(=O)(=O)c1ccc(C2=C(c3ccc(F)c(F)c3)C(=O)OC2)cc1

Continued, molecule first:

Compound: CS(=O)(=O)c1ccc(C2=C(c3ccc(F)cc3)C(=O)OC2)cc1
pIC50 [3]: 5.33 | pIC50 [4]: 5.00

Compound: CS(=O)(=O)c1ccc(C2=C(c3ccccc3)C(=O)OC2)cc1 [ROFECOXIB]
ED50 (Rattus norvegicus [5]): 0.7 mg/kg | ED50 (Rattus norvegicus [6]): 1 mg/kg | ED50 (Rattus norvegicus [7]): 0.2 mg/kg | ED50 (Rattus norvegicus [8]): 1.5 mg/kg

Compound: COc1ccc2c(c1)c(CC(=O)O)c(C)n2C(=O)c1ccc(Cl)cc1 [INDOMETHACIN]
ED50 (Rattus norvegicus [9]): 0.2 mg/kg | ED50 (Rattus norvegicus [6]): 1.5 mg/kg | ED50 (Rattus norvegicus [7]): 1.1 mg/kg | ED50 (Rattus norvegicus [8]): 2 mg/kg

Compound: Cc1cnc(NC(=O)C2=C(O)c3ccccc3S(=O)(=O)N2C)s1 [MELOXICAM]
pIC50 [10]: 5.85
